{"source": "patent US11939314B2", "about": "“Quinolin-2-one derivatives” (MERCK PATENT GMBH, priority 2016, dated 2024)", "key": {"[1]": {"target": "T1, c-Kit(V654A) (Homo sapiens, UniProt P10721, V654A)", "T1 construct": "amino acids 544-end containing the V654A mutation; GST (N)", "T1 sequence (P10721 544-976 V654A)": "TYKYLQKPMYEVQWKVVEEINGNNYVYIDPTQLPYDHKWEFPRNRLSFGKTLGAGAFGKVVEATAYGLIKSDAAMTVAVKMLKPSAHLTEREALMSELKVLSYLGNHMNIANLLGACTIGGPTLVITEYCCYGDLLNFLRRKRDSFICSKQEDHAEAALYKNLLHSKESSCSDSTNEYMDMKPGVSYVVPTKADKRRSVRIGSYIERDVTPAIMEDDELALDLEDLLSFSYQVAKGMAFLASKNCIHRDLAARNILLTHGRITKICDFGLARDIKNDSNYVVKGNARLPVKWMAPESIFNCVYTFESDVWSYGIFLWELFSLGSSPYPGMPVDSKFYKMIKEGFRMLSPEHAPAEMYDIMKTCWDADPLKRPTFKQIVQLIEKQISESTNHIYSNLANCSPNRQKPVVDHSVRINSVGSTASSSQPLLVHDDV", "assay": "c-Kit(V654A) assay", "assay_type": "biochemical", "conditions": "recombinant human c-Kit aa 544-end, 200 μM ATP, 1.4E-06 means 1.4×10^−6, read-out: Inhibition (IC50) of c-KIT (V654A)", "in_short": "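Radiometric filter-binding read-out: substrate 33P incorporation counted by scintillation after P30 filtermat washes in 75 mM phosphoric acid and methanol. Enzyme: N-GST recombinant human c-Kit aa 544-end carrying V654A.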"}, "[2]": {"target": "T2, PDGFRalpha(V561D) (Homo sapiens, UniProt P16234, V561D)", "T2 construct": "recombinant human PDGFRalpha, amino acids 550end containing the V561 D mutation; 6His (N)", "T2 sequence (P16234 550-1089 V561D)": "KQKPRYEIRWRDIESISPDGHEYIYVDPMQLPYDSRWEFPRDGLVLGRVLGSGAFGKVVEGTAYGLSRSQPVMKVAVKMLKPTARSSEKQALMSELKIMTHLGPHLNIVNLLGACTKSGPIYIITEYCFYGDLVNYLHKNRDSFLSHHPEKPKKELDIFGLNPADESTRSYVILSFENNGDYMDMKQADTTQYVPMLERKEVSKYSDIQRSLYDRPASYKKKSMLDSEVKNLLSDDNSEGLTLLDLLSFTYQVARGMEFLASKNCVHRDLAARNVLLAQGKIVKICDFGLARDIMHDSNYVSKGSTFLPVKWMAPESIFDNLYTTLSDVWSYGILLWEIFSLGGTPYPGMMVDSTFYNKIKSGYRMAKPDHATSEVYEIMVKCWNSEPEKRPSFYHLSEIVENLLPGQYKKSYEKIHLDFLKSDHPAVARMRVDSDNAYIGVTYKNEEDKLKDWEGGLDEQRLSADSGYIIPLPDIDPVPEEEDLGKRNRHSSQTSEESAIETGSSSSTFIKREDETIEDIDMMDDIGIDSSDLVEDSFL", "assay": "PDGFRalpha(V561D) assay", "assay_type": "biochemical", "conditions": "recombinant human PDGFRalpha aa 550-end, 200 μM ATP, 1.4E-06 means 1.4×10^−6, read-out: Inhibition (IC50) of PDGFRα (V561D)", "in_short": "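Radiometric filter-binding assay: substrate phosphorylation by recombinant N-His-tagged human PDGFRα 550-end V561D was quenched with 3% phosphoric acid after 40 min at room temperature, then counted.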"}}, "note": "Structures can show the parent of a compound that is named as a salt."}
{"smiles": "CC(=O)N1CCN(CCOc2ccc(-n3cc(-c4cc5cc(F)c(F)cc5[nH]c4=O)nn3)cc2)CC1", "note": "[A101, 3-(1-{4-[2-(4-acetyl-piperazin-1-yl)-ethoxy]-phenyl}-1H-[1,2,3]triazol-4-yl)-6,7-difluoro-1H-quinolin-2-one]", "values": [{"measurement": "IC50", "setting": "[1]", "result": 33, "unit": "nM"}, {"measurement": "IC50", "setting": "[2]", "result": 290, "unit": "nM"}]}
{"smiles": "CN(C)C[C@@H]1CCCN1C(=O)c1ccc(-n2cc(-c3cc4cc(F)ccc4[nH]c3=O)cn2)cc1", "note": "[A324, 3-{1-[4-((S)-2-dimethylaminomethyl-pyrrolidine-1-carbonyl)-phenyl]-1H-pyrazol-4-yl}-6-fluoro-1H-quinolin-2-one]", "values": [{"measurement": "IC50", "setting": "[1]", "result": 270, "unit": "nM"}, {"measurement": "IC50", "setting": "[2]", "result": 7.2, "unit": "nM"}]}
{"smiles": "O=c1[nH]c2ccccc2cc1-c1cn(-c2ccccc2)nn1", "note": "[A27, 3-(1-phenyl-1H-[1,2,3]triazol-4-yl)-1H-quinolin-2-one]", "values": [{"measurement": "IC50", "setting": "[1]", "result": 50, "unit": "nM"}, {"measurement": "IC50", "setting": "[2]", "result": 32, "unit": "nM"}]}
{"smiles": "O=C(NCCO)c1ccc(-n2cc(-c3cc4cccnc4[nH]c3=O)nn2)cc1", "note": "[A8, N-(2-hydroxy-ethyl)-4-[4-(2-oxo-1,2-dihydro-[1,8]naphthyridin-3-yl)-[1,2,3]triazol-1-yl]-benzamide]", "values": [{"measurement": "IC50", "setting": "[1]", "result": 170, "unit": "nM"}, {"measurement": "IC50", "setting": "[2]", "result": 14, "unit": "nM"}]}
{"smiles": "COCC1CCCN1C(=O)c1ccc(-n2cc(-c3cc4cc(F)ccc4[nH]c3=O)nn2)cc1", "note": "(stereo in doubt) [A198, 6-fluoro-3-{1-[4-((R)-2-methoxymethyl-pyrrolidine-1-carbonyl)-phenyl]-1H-[1,2,3]triazol-4-yl}-1H-quinolin-2-one]", "values": [{"measurement": "IC50", "setting": "[1]", "result": 30, "unit": "nM"}, {"measurement": "IC50", "setting": "[2]", "result": 200, "unit": "nM"}]}
{"smiles": "COCCOC[C@@H]1CCN(C(=O)c2ccc(-n3cc(-c4cc5cc(F)c(F)cc5[nH]c4=O)nn3)cc2)C1", "note": "[A223, 6,7-difluoro-3-(1-{4-[(R)-3-(2-methoxy-ethoxymethyl)-pyrrolidine-1-carbonyl]-phenyl}-1H-[1,2,3]triazol-4-yl)-1H-quinolin-2-one]", "values": [{"measurement": "IC50", "setting": "[1]", "result": 350, "unit": "nM"}, {"measurement": "IC50", "setting": "[2]", "result": 410, "unit": "nM"}]}
{"smiles": "COc1ccc2cc(-c3cn(-c4ccc(C(=O)N5CCOCC5)cc4)nn3)c(=O)[nH]c2c1", "note": "[A93, 7-methoxy-3-{1-[4-(morpholine-4-carbonyl)-phenyl]-1H-[1,2,3]triazol-4-yl}-1H-quinolin-2-one]", "values": [{"measurement": "IC50", "setting": "[1]", "result": 320, "unit": "nM"}, {"measurement": "IC50", "setting": "[2]", "result": 310, "unit": "nM"}]}
{"smiles": "CN1CC[C@@H](Oc2ccc(-n3cc(-c4cc5cc(Cl)ccc5[nH]c4=O)nn3)cc2)C1", "note": "[A369, 6-chloro-3-{1-[4-((R)-1-methyl-pyrrolidin-3-yloxy)-phenyl]-1H-[1,2,3]triazol-4-yl}-1H-quinolin-2-one]", "values": [{"measurement": "IC50", "setting": "[1]", "result": 13, "unit": "nM"}, {"measurement": "IC50", "setting": "[2]", "result": 34, "unit": "nM"}]}
{"smiles": "N[C@H]1CCCN(C(=O)c2ccc(-n3cc(-c4cc5cc(F)c(F)cc5[nH]c4=O)nn3)cc2)C1", "note": "[A310, 3-{1-[4-((S)-3-amino-piperidine-1-carbonyl)-phenyl]-1H-[1,2,3]triazol-4-yl}-6,7-difluoro-1H-quinolin-2-one hydrochloride]", "values": [{"measurement": "IC50", "setting": "[1]", "result": 44, "unit": "nM"}, {"measurement": "IC50", "setting": "[2]", "result": 85, "unit": "nM"}]}
{"smiles": "CN1CCC(CNC(=O)c2ccc(-n3cc(-c4cc5cc(F)ccc5[nH]c4=O)nn3)cc2)CC1", "note": "[A22, 4-[4-(6-fluoro-2-oxo-1,2-dihydro-quinolin-3-yl)-[1,2,3]triazol-1-yl]-N-(1-methyl-piperidin-4-ylmethyl)-benzamide]", "values": [{"measurement": "IC50", "setting": "[1]", "result": 27, "unit": "nM"}, {"measurement": "IC50", "setting": "[2]", "result": 6, "unit": "nM"}]}
{"smiles": "COCCN(C)C(=O)c1ccc(-n2cc(-c3cc4cc(F)ccc4[nH]c3=O)nn2)cc1", "note": "[A211, 4-[4-(6-fluoro-2-oxo-1,2-dihydro-quinolin-3-yl)-[1,2,3]triazol-1-yl]-N-(2-methoxy-ethyl)-N-methyl-benzamide]", "values": [{"measurement": "IC50", "setting": "[1]", "result": 190, "unit": "nM"}, {"measurement": "IC50", "setting": "[2]", "result": 85, "unit": "nM"}]}
{"smiles": "CO[C@H]1CCN(C(=O)c2ccc(-n3cc(-c4cc5cc(F)ccc5[nH]c4=O)nn3)cc2)C1", "note": "[A112, 6-fluoro-3-{1-[4-((S)-3-methoxy-pyrrolidine-1-carbonyl)-phenyl]-1H-[1,2,3]triazol-4-yl}-1H-quinolin-2-one]", "values": [{"measurement": "IC50", "setting": "[1]", "result": 16, "unit": "nM"}, {"measurement": "IC50", "setting": "[2]", "result": 64, "unit": "nM"}]}
{"smiles": "CN1CCN(c2ccc(-n3cc(-c4cc5cc(F)ccc5[nH]c4=O)nn3)cc2)C(=O)C1", "note": "[A71, 6-fluoro-3-{1-[4-(4-methyl-2-oxo-piperazin-1-yl)-phenyl]-1H-[1,2,3]triazol-4-yl}-1H-quinolin-2-one]", "values": [{"measurement": "IC50", "setting": "[1]", "result": 8, "unit": "nM"}, {"measurement": "IC50", "setting": "[2]", "result": 4, "unit": "nM"}]}
{"smiles": "CC(C)(c1ccc(-n2cc(-c3cc4ccccc4[nH]c3=O)nn2)cc1)S(C)(=O)=O", "note": "[A81, 3-{1-[4-(1-methanesulfonyl-1-methyl-ethyl)-phenyl]-1H-[1,2,3]triazol-4-yl}-1H-quinolin-2-one]", "values": [{"measurement": "IC50", "setting": "[1]", "result": 17, "unit": "nM"}, {"measurement": "IC50", "setting": "[2]", "result": 6, "unit": "nM"}]}
{"smiles": "O=C(Cn1ccc2cc(-n3cc(-c4cc5c(F)cc(F)cc5[nH]c4=O)nn3)ccc21)N1CCNCC1", "note": "[A138, 5,7-difluoro-3-{1-[1-(2-oxo-2-piperazin-1-yl-ethyl)-1H-indol-5-yl]-1H-[1,2,3]triazol-4-yl}-1H-quinolin-2-one]", "values": [{"measurement": "IC50", "setting": "[1]", "result": 11, "unit": "nM"}, {"measurement": "IC50", "setting": "[2]", "result": 86, "unit": "nM"}]}
{"smiles": "COCCN1CCN(C(=O)c2ccc(-n3cc(-c4cc5cc(F)cnc5[nH]c4=O)nn3)cc2)CC1", "note": "[A175, 6-Fluoro-3-(1-{4-[4-(2-methoxy-ethyl)-piperazine-1-carbonyl]-phenyl}-1H-[1,2,3]triazol-4-yl)-1H-[1,8]naphthyridin-2-one]", "values": [{"measurement": "IC50", "setting": "[1]", "result": 92, "unit": "nM"}, {"measurement": "IC50", "setting": "[2]", "result": 6, "unit": "nM"}]}
{"smiles": "CN1CCN(C(=O)c2ccc(-n3cc(-c4cc5ccc(Cl)cc5[nH]c4=O)nn3)cc2)CC1=O", "note": "[A97, 7-chloro-3-{1-[4-(4-methyl-3-oxo-piperazine-1-carbonyl)-phenyl]-1H-[1,2,3]triazol-4-yl}-1H-quinolin-2-one]", "values": [{"measurement": "IC50", "setting": "[1]", "result": 17, "unit": "nM"}, {"measurement": "IC50", "setting": "[2]", "result": 10, "unit": "nM"}]}
{"smiles": "O=C(c1ccc(-n2cc(-c3cc4cc(F)ccc4[nH]c3=O)nn2)cc1)N1CCC[C@H]1CN1CCCC1", "note": "[A279, 6-fluoro-3-{1-[4-((S)-2-pyrrolidin-1-ylmethyl-pyrrolidine-1-carbonyl)-phenyl]-1H-[1,2,3]triazol-4-yl}-1H-quinolin-2-one]", "values": [{"measurement": "IC50", "setting": "[1]", "result": 14, "unit": "nM"}, {"measurement": "IC50", "setting": "[2]", "result": 0.72, "unit": "nM"}]}
{"smiles": "CC(=O)N1CCN(CCOc2ccc(-n3cc(-c4cc5cc(F)ccc5[nH]c4=O)nn3)cc2)CC1", "note": "[A100a, 3-(1-{4-[2-(4-acetyl-piperazin-1-yl)-ethoxy]-phenyl}-1H-[1,2,3]triazol-4-yl)-6-fluoro-1H-quinolin-2-one]", "values": [{"measurement": "IC50", "setting": "[1]", "result": 18, "unit": "nM"}, {"measurement": "IC50", "setting": "[2]", "result": 54, "unit": "nM"}]}
{"smiles": "O=c1[nH]c2ccc(F)cc2cc1-c1cn(-c2ccc(N3CCCS3(=O)=O)cc2)nn1", "note": "[A99, 3-{1-[4-(1,1-dioxo-1|6-isothiazolidin-2-yl)-phenyl]-1H-[1,2,3]triazol-4-yl}-6-fluoro-1H-quinolin-2-one]", "values": [{"measurement": "IC50", "setting": "[1]", "result": 33, "unit": "nM"}, {"measurement": "IC50", "setting": "[2]", "result": 76, "unit": "nM"}]}
{"smiles": "CN1CCN(C(=O)Cc2ccc(-n3cc(-c4cc5cc(F)c(F)cc5[nH]c4=O)nn3)cc2)CC1", "note": "[A169, 6,7-difluoro-3-(1-{4-[2-(4-methyl-piperazin-1-yl)-2-oxo-ethyl]-phenyl}-1H-[1,2,3]triazol-4-yl)-1H-quinolin-2-one]", "values": [{"measurement": "IC50", "setting": "[1]", "result": 14, "unit": "nM"}, {"measurement": "IC50", "setting": "[2]", "result": 430, "unit": "nM"}]}
{"smiles": "CN1CCC(Cc2ccc(-n3cc(-c4cc5cc(F)ccc5[nH]c4=O)nn3)cc2)CC1", "note": "[A371, 6-fluoro-3-{1-[4-(1-methyl-piperidin-4-ylmethyl)-phenyl]-1H-[1,2,3]triazol-4-yl}-1H-quinolin-2-one]", "values": [{"measurement": "IC50", "setting": "[1]", "result": 34, "unit": "nM"}, {"measurement": "IC50", "setting": "[2]", "result": 11, "unit": "nM"}]}
{"smiles": "CN1CCN(CCOc2ccc(-n3cc(-c4cc5cc(F)ccc5[nH]c4=O)nn3)cc2)CC1", "note": "[A176, 6-fluoro-3-(1-{4-[2-(4-methyl-piperazin-1-yl)-ethoxy]-phenyl}-1H-[1,2,3]triazol-4-yl)-1H-quinolin-2-one]", "values": [{"measurement": "IC50", "setting": "[1]", "result": 6.7, "unit": "nM"}, {"measurement": "IC50", "setting": "[2]", "result": 1.6, "unit": "nM"}]}
